Data set [1] has as its target Amyloid-beta precursor protein (Homo sapiens) (UniProt P05067). The data set is described as follows: Binding affinity to unordered beta sheet of amyloid beta (1 to 42) (unknown origin) by circular dichroism spectroscopic analysis. A general note: Circular dichroism is the unequal absorption of left and right circularly polarised light.
For data set [2] the target is unchanged. In words: Binding affinity to ordered beta sheet of amyloid beta (1 to 42) (unknown origin) assessed as fluorescence enhancement at 0.5 uM by fluorescence spectra analysis relative to control.
Data set [3] has as its target T1, Albumin (Bos taurus, UniProt P02769). The data set is described as follows: Binding affinity to bovine serum albumin at 2 uM by circular dichroism spectroscopic analysis relative to control relative to control. Conditions: cattle.
The target of data set [4] is T1, Albumin. The data set is described as follows: Binding affinity to beta-sheet rich bovine serum albumin at 2 uM by circular dichroism spectroscopic analysis. Conditions: cattle, TDE = time-dependent effect.
Data set [5] addresses Amyloid-beta precursor protein (Homo sapiens) (UniProt P05067). In words: Binding affinity to ordered beta sheet of amyloid beta (1 to 42) (unknown origin) by circular dichroism spectroscopic analysis.
Data set [6] has the same target. The data set is described as follows: Binding affinity to unordered beta sheet of amyloid beta (1 to 42) (unknown origin) assessed as fluorescence enhancement at 0.5 uM by fluorescence spectra analysis relative to control.
Data set [7] deals with T1, Albumin. The data set is described as follows: Binding affinity to bovine serum albumin at 2 uM by circular dichroism spectroscopic analysis relative to control. As to conditions: cattle.
Data set [8] addresses T1, Albumin. The data set is described as follows: Binding affinity to bovine serum albumin at 2 uM by circular dichroism spectroscopic analysis. Conditions: cattle, TDE = time-dependent effect.

Structures are written as SMILES. Activity calls are given as the source filed them. The rule behind the calls is not given here.

Sequence of Amyloid-beta precursor protein (Homo sapiens) (P05067 whole entry): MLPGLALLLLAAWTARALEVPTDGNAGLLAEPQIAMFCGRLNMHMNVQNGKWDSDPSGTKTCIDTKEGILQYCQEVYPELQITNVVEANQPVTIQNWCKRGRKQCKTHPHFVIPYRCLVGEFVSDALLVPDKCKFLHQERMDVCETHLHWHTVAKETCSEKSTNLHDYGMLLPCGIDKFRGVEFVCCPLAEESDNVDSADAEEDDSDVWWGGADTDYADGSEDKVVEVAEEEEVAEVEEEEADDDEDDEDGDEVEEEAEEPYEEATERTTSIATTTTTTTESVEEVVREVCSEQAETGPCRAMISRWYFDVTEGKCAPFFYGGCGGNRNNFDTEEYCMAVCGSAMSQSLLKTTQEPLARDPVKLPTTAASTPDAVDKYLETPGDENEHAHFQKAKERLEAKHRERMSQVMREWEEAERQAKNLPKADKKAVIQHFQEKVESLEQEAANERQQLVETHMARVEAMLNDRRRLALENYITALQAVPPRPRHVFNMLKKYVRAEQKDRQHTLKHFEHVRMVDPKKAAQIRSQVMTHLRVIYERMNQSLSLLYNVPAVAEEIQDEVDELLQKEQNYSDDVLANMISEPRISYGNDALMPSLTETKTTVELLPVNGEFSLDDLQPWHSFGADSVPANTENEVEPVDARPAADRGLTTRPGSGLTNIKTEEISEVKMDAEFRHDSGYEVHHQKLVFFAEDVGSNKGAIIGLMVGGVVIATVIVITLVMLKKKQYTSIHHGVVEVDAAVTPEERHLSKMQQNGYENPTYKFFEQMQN
T1 sequence (P02769 whole entry): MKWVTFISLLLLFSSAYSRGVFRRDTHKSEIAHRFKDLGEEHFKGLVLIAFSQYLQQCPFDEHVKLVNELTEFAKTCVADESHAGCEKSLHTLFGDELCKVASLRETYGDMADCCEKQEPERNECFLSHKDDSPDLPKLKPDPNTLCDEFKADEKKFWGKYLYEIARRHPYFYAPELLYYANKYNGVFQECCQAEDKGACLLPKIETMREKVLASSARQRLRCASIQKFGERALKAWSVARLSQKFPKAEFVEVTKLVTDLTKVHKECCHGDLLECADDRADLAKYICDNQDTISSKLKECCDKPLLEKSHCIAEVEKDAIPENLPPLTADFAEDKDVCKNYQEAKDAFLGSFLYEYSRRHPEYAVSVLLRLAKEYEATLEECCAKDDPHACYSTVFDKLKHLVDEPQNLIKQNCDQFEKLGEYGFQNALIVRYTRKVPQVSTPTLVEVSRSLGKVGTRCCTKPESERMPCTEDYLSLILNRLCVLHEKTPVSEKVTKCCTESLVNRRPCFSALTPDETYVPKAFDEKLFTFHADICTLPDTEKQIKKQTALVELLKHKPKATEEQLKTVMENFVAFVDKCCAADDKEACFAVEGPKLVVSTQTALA

For the compound `F[B-]1(F)n2c(-c3ccccc3)cc(-c3ccccc3)c2N=C2C(c3ccccc3)=CC(c3ccccc3)=[N+]21`, the result in data set [1] and in data set [5] was Active. Besides, the fold change (FC) in data set [2] was 16; on Albumin [3], 340; in data set [6], 6; at Albumin [7], 57. Moreover, the Activity entry on Albumin [4] and at Albumin [8] was “tde” each time.

The values are drawn from ChEMBL document CHEMBL2331245, “Aza-BODIPY: improved synthesis and interaction with soluble Aβ1-42 oligomers” (Bioorg Med Chem Lett, 2013).
